According to patent publication US9090632B2, “Bicyclic oxazole and thiazole compounds and their use as allosteric modulators of mGluR5 receptors” (Vanderbilt University, priority 2010, dated 2015):

What was measured:
[1] = system: amphetamine-induced hyperlocomotion; assay: Reversal of amphetamine-induced hyperlocomotion; format: in vivo, rat; details: male Sprague-Dawley rats; test compound po in 20% HP-β-CD; amphetamine sulfate 1 mg/kg sc
Method: Locomotor activity was assessed as mean distance traveled (cm) in standard 16×16 photocell testing chambers measuring 43.2 cm (Length)×43.2 cm (Width)×30.5 cm (Height) (Med Associates, St. Albans, Vt.). Animals were habituated to individual activity chambers for at least 30 min prior to drug administration. Following administration of drug or vehicle, activity was recorded for a 90 minute time period. Data was expressed as the mean (±SEM) distance traveled recorded in 5 min intervals over the test period. The data was analyzed using repeated measures analysis of variance (ANOVA) followed by post-hoc testing using Dunnett's test, when appropriate. A difference was considered significant when p≦0.05. […]
The animals were habituated in Smart Open Field locomotor activity test chambers (Hamilton-Kinder, San Diego, Calif.) with 16×16 photobeams to automatically record locomotor activity for 30 min and then dosed with vehicle or test compound. […] At 60 min, all rats were injected subcutaneously with 1 mg/kg amphetamine or vehicle and then monitored for an additional 60 min. Animals are monitored for a total of 120 minutes. Data are expressed as changes in ambulation defined as total number of beam breaks per 5 min periods.
The data for the dose-response studies were analyzed by a between-group analysis of variance. […]

[2] = molecular target: human mGluR5 (Homo sapiens, UniProt P41594); assay: Cell-based functional Ca2+ mobilization assay, potentiation of glutamate EC20 response (H10H cell-line); details: H10H cell-line expressing recombinant human mGluR5; for Emax: in presence of glutamate EC20, normalized to maximal glutamate response; for EC50: potentiation in presence of glutamate EC20
Method in brief: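 H10H HEK293A cells expressing human mGluR5a were loaded with 2 μM fluo-4 AM in HBSS/20 mM HEPES/2.5 mM probenecid pH 7.4 and read on an FDSS 6000. Compound was added after a ~3 s baseline, followed 2.3 min later by an EC20 glutamate concentration; potentiation EC50 came from non-linear curve fitting.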

Chain of human mGluR5 (P41594 21-1180 isoform P41594-2 limits assumed): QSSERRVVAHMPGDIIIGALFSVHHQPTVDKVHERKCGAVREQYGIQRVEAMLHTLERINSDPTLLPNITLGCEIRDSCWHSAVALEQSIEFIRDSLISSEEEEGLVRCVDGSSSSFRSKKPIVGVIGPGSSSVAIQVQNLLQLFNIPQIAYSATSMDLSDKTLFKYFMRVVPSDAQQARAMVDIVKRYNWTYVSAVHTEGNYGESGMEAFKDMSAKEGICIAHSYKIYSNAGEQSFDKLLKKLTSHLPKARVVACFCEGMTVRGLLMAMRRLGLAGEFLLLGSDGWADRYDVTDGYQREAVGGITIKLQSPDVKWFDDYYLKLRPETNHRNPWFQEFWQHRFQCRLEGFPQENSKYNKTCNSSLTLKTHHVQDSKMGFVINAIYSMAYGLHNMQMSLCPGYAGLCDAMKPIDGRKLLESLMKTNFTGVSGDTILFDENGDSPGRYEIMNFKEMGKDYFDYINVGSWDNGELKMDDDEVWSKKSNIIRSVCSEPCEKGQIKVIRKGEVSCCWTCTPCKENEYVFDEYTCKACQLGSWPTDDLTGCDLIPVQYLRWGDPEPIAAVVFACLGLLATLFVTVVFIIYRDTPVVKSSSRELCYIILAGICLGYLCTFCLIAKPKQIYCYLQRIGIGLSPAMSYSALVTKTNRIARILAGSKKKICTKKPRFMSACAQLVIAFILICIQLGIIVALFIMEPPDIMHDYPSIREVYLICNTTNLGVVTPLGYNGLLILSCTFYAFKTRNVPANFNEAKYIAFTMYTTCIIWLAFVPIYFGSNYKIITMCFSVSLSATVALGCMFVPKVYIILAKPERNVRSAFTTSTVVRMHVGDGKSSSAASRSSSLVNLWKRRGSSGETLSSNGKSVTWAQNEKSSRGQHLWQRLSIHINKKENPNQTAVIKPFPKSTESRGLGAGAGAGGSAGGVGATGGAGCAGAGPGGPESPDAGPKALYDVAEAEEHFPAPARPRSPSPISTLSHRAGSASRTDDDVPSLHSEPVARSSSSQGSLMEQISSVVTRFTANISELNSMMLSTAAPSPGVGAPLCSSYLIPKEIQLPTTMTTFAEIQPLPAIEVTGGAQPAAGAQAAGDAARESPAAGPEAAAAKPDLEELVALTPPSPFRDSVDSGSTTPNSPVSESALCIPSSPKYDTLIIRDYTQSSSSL

SMILES	Emax [2]	EC50 [2]	melting point	reversal of amphetamine-induced hyperlocomotion [1]
O=C(c1ccc(F)cc1)N1CCc2nc(COc3ccccc3)oc2C1 [Example B1, 5-[(4-fluorophenyl)carbonyl]-2-(phenoxymethyl)-4,5,6,7-tetrahydro[1,3]oxazolo[5,4-c]pyridine]	84%	380 nM		Dose-dependent results for reversal of amphetamine-induced hyperlocomotion
O=C(c1ccc(F)nc1)N1CCc2nc(COc3ccccc3)oc2C1 [Example B94]	68%	1120 nM	128.7 °C	
O=C(c1ccccc1)N1CCc2nc(COc3cccc(F)c3)oc2C1 [Example B26]	80%	251 nM	204.7 °C	

Continued, in another order:

Emax [2]	EC50 [2]	melting point	SMILES	reversal of amphetamine-induced hyperlocomotion [1]
40%	> 10000 nM	78.9 °C	O=C(c1ccc(F)cc1)N1CCc2nc(COc3cccc(C(F)(F)F)c3)oc2C1 [Example B127]	
81%	1050 nM	147.7 °C	N#Cc1cc(C(=O)N2CCc3nc(COc4cccc(F)c4)oc3C2)ccc1F [Example B97]	
